Experimental findings from publication PMC6751184, “Heme and hemoglobin utilization by Mycobacterium tuberculosis” (Nature Communications, 2019) are described below.

The target of the experiment is DppA (Rv3666c), substrate-binding protein of the Dpp transporter (Mycobacterium tuberculosis, UniProt I6X811, W442A).

On to `C=CC1=C(C)C2=Cc3c(C=C)c(C)c4[n]3[Fe]([Cl])[n]3c(c(C)c(CCC(=O)O)c3=CC3=NC(=C4)C(C)=C3CCC(=O)O)=CC1=N2` [hemin], for which the “SPR; binds but dissociates quickly, reduced affinity” value is “Surface plasmon resonance showed that heme bound to the DppAW442A protein but dissociated quickly”.
